Tests used:
[1] = test system: adult human dermal fibroblasts (HDFs); experiment: Peak subG1 fraction after declustering drugs, non-malignant HDFs; type: cell-based; conditions: for Peak subG1 percents over 48 h: HDF; for death in cancer cell lines vs. HDFs: both concentrations
Protocol: (§1) To evaluate the impact of putative declustering drugs on cell cycle progression and hypodiploidy (<2N DNA content, which may indicate apoptotic cells), MDA-MB-231 (231), PC3, and HeLa cells were treated with different concentrations of declustering drugs, stained with propidium iodide, labeled with anti-MPM2 antibody, and then assessed by flow cytometry at multiple time points over 48 hr. […] The duration, highest degree, and rapidity of onset of MA varied between drugs, drug concentrations, and cell lines (data not shown). In general, the maximum MA achieved was less pronounced in Nos- and PJ-treated cells. Drug-induced onset of MA was corroborated by substantial increases in cyclin B1 levels in all cell lines. For most cases, prolonged MA (˜24 hr in duration) was followed by a substantial increase in the subG1 population fraction. […] Instances where the subGl fraction was elevated without cleaved caspase-3 may either represent caspase-independent cell death or the presence of hypodiploid cells whose fate is unclear. In general, no consistent associations between the extent, duration, or timing of MA within drugs or across cell lines was found.
(§2) To determine whether the CA-inducing activity of declustering drugs is restricted to cancer cells, two non-malignant cell lines, mammary fibrocystic (MCF10A) cells and adult human dermal fibroblasts (HDFs) were treated with these drugs. […] In comparison, 10 and 25 µM RBN increased peak CA over controls in interphase cells (p<0.001 and p=0.001, respectively), with the lower concentration dramatically augmenting peak CA to 56% of cells versus 15% for the higher dose (FIG. 13, panel B).
In HDFs, all the drugs tested increased peak subG1 over controls in a significant fashion (p<0.01 for all) (Table 2). […] Thus, it appears that there may be clinically relevant therapeutic windows for these drugs depending on the type of cancer and the drug dosage.

[2] = test system: mammary fibrocystic (MCF10A) cells; experiment: Peak subG1 fraction after declustering drugs, non-malignant MCF10A cells; type: cell-based; conditions: for peak subG1 percent compared to controls: MCF10A cells; for Peak subG1 percents over 48 h: MCF10A
Protocol: as §1, §2
Importantly, a therapeutic window exists for several of these agents at the concentrations and in the cell lines tested compared to cancer cells.

MCF10A cells = experiment: Centrosome amplification (CA) by microscopy, MCF10A cells; type: cell-based
Protocol: Consequently, CA was assessed in cultures treated with different concentrations of declustering drugs for 6, 12, 18, or 24 h and untreated controls via microscopy. Centrosomes were identified by γ-tubulin and centrin-2 colocalization at discrete foci.
as §2

MDA-MB-231 (231) cells = experiment: Peak subG1 fraction by flow cytometry (propidium iodide) after declustering drugs, 231 cells; type: cell-based, human
Protocol: as §1

[3] = test system: MDA-MB-231 (231), PC3, and HeLa cells; experiment: Mitotic arrest (MA) metrics by flow cytometry (anti-MPM2) across cell lines; type: cell-based
From the text: FIG. 10 depicts mitotic arrest metrics across cell lines for each declustering drug. […] A lack of box in the plot occurs when the median is very close (or equal) to the inter-quartile range limits, in which case notch is shown with a default height and starting point of whisker line extension indicates 25% or 75% position. Because the coarse-grained data are integers and the size of the data sets are small (n<8), in some cases the median, lower or upper inter-quartile range values, or the max or min values, may coincide in some combination. This figure broadly visualizes clustering and correlation in the coarse-grained data. For instance, non-integer values have no intrinsic meaning but, for instance, a median value of 4.4 indicates a concentration of categories recorded in categories 4 or 5. […] TRH=“time reach highest” value; CTP=“consecutive time points,” MA_totCTP=sum(MA_SnCTP for n=2 . . . 5).
To evaluate the impact of putative declustering drugs on cell cycle progression and hypodiploidy (<2N DNA content, which may indicate apoptotic cells), MDA-MB-231 (231), PC3, and HeLa cells were treated with different concentrations of declustering drugs, stained with propidium iodide, labeled with anti-MPM2 antibody, and then assessed by flow cytometry at multiple time points over 48 hr. […]

N1E-115 cells = experiment: Golgi (GM130) and γ-tubulin co-immunostaining of drug-treated N1E-115 cells; type: cell-based, murine; conditions: data not shown
From the text: The Golgi, which is primarily responsible for posttranslational modification and protein sorting, also functions as a microtubule-organizing center (MTOC). It has been hypothesized that supernumerary centrosomes may better organize the Golgi to enhance directional cell migration. To investigate what happens to the Golgi upon declustering drug-induced dispersal of the interphase centrosomal cluster, drug-treated N1E-115 cells were co-immunostained with GM130 (a cis-Golgi matrix protein crucial for maintaining its structure) and γ-tubulin.

PC3 cells = experiment: Peak subG1 fraction by flow cytometry after declustering drugs, PC3 cells; type: cell-based
Protocol: as §1

HeLa cells = experiment: Centrosome amplification (CA) by microscopy, HeLa cells; type: cell-based; conditions: for cells having CA (maximum extent) / increase in CA over controls: mitotic HeLa cells
Protocol: Consequently, CA was assessed in cultures treated with different concentrations of declustering drugs for 6, 12, 18, or 24 h and untreated controls via microscopy. Centrosomes were identified by γ-tubulin and centrin-2 colocalization at discrete foci. […] The peak percent CA detected over 24 h is shown in FIG. 13 (only statistically significant (P<0.05) increases over control values are represented in the Figures). To better understand the “potency” of drug-induced CA with time, the average fold change in CA over controls over 24 h was assessed (FIG. 12, panel A), whereby the extent of CA across time points (i.e., 6, 12, 18, and 24 hr) was averaged and then divided by the extent of CA in control (i.e., 0 hr). All of the drugs at least doubled the peak extent of CA in all cell lines tested (FIG. 12, panel A), although the final extent of CA could be small or large in magnitude depending on the initial centrosomal burden as shown in FIG. 11. […] The peak extent in interphase HeLa cells was somewhat less at 30.7% and 48.1% for 10 and 25 μM RBN, respectively (FIG. 13, panel A). For Nos and BN, there was no major difference in CA levels in interphase versus mitotic cells.

[4] = interphase HeLa cells, 25 μM, over 24 h

Compound | Peak subG1 percents over 48 h ([1]; 10 μM) [%] | Peak subG1 percents over 48 h ([1]; 25 μM) [%] | death in cancer cell lines vs. HDFs [1] | peak subG1 percent compared to controls [2] | Peak subG1 percents over 48 h ([2]; 10 μM) [%] | Peak subG1 percents over 48 h ([2]; 25 μM) [%] | Peak subG1 percents over 48 h (MDA-MB-231 (231) cells; 10 μM) [%] | Peak subG1 percents over 48 h (MDA-MB-231 (231) cells; 25 μM) [%] | maximum (peak) subG1 fraction relative to control (MDA-MB-231 (231) cells; 25 μM) [× control] | fragmentation of the interphase Golgi complex (N1E-115 cells) | Peak subG1 percents over 48 h (PC3 cells; 10 μM) [%] | Peak subG1 percents over 48 h (PC3 cells; 25 μM) [%] | peak (final) extent of CA (HeLa cells; [4]) [%] | also measured
CN(C)CC(=O)Nc1ccc2[nH]c(=O)c3ccccc3c2c1 [PJ, PJ-34] | 13.6 | 28.2 | more death in all cancer cell lines vs. HDFs | did not cause a significant increase | 6.9 | 9.1 | 37.0 | 65.0 | 10.4 | interphase Golgi complex fragmented | 62.4 | 48.4 | < 20 | peak extent of CA (MCF10A cells; interphase MCF10A cells, 10 μM): 8 % of cells; peak extent of CA versus controls (MCF10A cells; interphase and mitotic MCF10A cells, 25 μM): increased the peak extent of CA in interphase and mitotic cells; mean time to peak MA (MA:TRH) ([3]; coarse-grained categories): ~12 h; increase in peak CA extent over controls (HeLa cells; interphase HeLa cells, 25 μM): ~20 fold
reduced-9-bromonoscapine [RBN] | 35.9 | 39.9 | more death in 231 cells | did increase peak SubG1 | 36.4 | 44.0 | 47.0 | 80.8 | 25 | most robust effect | 80.7 | 73.0 | 48.1 | peak subG1 / toxicity in MCF10A cells versus cancer cell lines ([2]; 10 μM): smaller peak subG1 in MCF10A cells as compared to 231 cells; susceptibility / toxicity in MCF10A cells versus cancer cell lines ([2]; 25 μM): much greater increases in toxicity to 231 and PC3 cells; CA / peak extent of CA versus control levels (MCF10A cells; interphase and mitotic MCF10A cells, both concentrations (10 and 25 μM), over 24 h): significantly increased the peak extent of CA; peak MA (MA:HR), cells in MA ([3]; category near "4"): ≥ 30%; maximum (peak) subG1 fraction relative to control (PC3 cells; 10 μM): 8 × control; peak extent of CA (HeLa cells; interphase HeLa cells, 10 μM, over 24 h): 30.7%; cells having CA (maximum extent) (HeLa cells; 10 μM): 78%; increase in CA over controls (HeLa cells; 10 μM): approximately 40 fold; cells having CA (maximum extent) (HeLa cells; 25 μM): 42%; increase in CA over controls (HeLa cells; 25 μM): ~20 fold
